Source: US20210347727A1 (BLADE THERAPEUTICS, INC., priority 2017, published 2021)

Key:
[1] = molecular target: T1, Human Calpain 9/NS1 (Homo sapiens, UniProt O14815); experiment: Biochemical inhibition of calpain 9, continuous fluorescence (FRET substrate) assay; details: mean; read-out: Human Calpain 9/NS1 IC50 (nM)_MEAN
T1 sequence (O14815 1-690): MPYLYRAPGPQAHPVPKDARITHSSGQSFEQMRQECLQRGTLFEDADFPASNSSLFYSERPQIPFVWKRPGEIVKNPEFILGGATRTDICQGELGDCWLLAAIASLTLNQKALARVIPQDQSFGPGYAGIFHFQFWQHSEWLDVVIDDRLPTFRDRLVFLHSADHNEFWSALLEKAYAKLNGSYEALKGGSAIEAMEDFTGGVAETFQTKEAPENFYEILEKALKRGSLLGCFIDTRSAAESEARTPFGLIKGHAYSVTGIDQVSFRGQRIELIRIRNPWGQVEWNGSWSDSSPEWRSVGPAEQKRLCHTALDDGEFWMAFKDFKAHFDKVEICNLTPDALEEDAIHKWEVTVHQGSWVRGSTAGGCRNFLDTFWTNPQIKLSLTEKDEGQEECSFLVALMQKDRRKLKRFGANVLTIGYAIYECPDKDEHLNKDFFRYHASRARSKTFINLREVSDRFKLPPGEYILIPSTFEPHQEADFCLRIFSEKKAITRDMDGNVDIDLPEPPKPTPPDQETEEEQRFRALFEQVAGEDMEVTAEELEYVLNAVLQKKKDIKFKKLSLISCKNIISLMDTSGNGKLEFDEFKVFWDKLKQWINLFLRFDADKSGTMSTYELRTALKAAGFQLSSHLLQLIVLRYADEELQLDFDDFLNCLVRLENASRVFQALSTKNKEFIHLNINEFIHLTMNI
T1 sequence (P04632 1-268 partner): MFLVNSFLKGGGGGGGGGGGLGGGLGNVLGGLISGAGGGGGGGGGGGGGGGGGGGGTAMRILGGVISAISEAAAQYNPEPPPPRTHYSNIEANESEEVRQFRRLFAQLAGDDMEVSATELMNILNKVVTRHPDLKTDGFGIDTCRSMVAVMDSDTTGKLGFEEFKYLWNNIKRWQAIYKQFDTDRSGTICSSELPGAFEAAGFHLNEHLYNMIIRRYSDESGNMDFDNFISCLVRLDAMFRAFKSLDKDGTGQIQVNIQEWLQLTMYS
Method: (§1) Calpain 1, 2, and 9 activity and inhibition thereof are assessed by means of a continuous fluorescence assay. The SensoLyte 520 Calpain substrate (Anaspec Inc) is optimized for detecting calpain activity. This substrate contains a novel internally quenched 5-FAM/QXL™ 520 FRET pair. Calpains 1, 2, and 9 cleave the FRET substrate into two separate fragments resulting in an increase of 5-FAM fluorescence that is proportional to calpain activity.
(§2) Assays are typically setup in black 384-well plates using automated liquid handling as follows. Calpain assay base buffer typically contains 50 mM Tris, pH 7.5, 100 mM NaCl and 1 mM DTT. Inhibitors are serially diluted in DMSO and used to setup 2× mixtures with calpains in the aforementioned buffer. After incubation at ambient temperature (25 C), the reaction is initiated by adding a 2× mix of the fluorescent peptide substrate and CaCl2 (required for in-situ calpain activation) in the same buffer. Reaction progress curve data are typically collected for 10 min using excitation/emission wavelengths of 490 nm/520 nm on SpectraMax i3x or the FLIPR-Tetra plate readers (Molecular Devices Inc). Reaction rates were calculated from progress curve slopes typically over 1-5 min. Dose response curves (rate vs. log inhibitor concentration) were typically fit to a 4-parameter logistic function to extract IC50 values.

[2] = system: calpain activity in SH-SY5Y cells; experiment: SH-SY5Y cellular calpain activity, Suc-LLVY-AMC fluorescence assay; assay type: cell-based; details: Suc-LLVY-AMC substrate
Method: Calpain activity in SH-SY5Y cells and inhibition thereof were assessed by means of a homogeneous, fluorescence assay that uses the cell-permeable and pro-fluorescent calpain substrate Suc-LLVY-AMC (Sigma-Aldrich Inc). Upon intracellular calpain cleavage of Suc-LLVY-AMC, fluorescent amino-methyl-coumarin (AMC) is released into the media resulting in a continuous increase in fluorescence signal that is proportional to intra-cellular calpain activity.
Assays were typically setup by seeding SH-SY5Y cells in black 384-well plates at 40 k/per well in RPMI-1640 containing 1% serum followed by 37 C overnight incubation. Next morning, cells were pre-incubated for 30 min with serially diluted compounds followed by addition of 100 uM of Suc-LLVY-AMC substrate. The continuous increase in AMC fluorescence is monitored using a FLIPR, Tetra plate reader (Molecular Devices Inc) and slopes measured to report calpain activity. Dose response curves (slopes vs. log inhibitor concentration) were typically fit to a 4-parameter logistic function to extract IC50 values.

[3] = molecular target: T2, Human Calpain 1/NS1 (Homo sapiens, UniProt P07384); experiment: Biochemical inhibition of calpain 1, continuous fluorescence (FRET substrate) assay; details: mean; read-out: Human Calpain 1/NS1 IC50 (nM)_MEAN
T2 sequence (P07384 1-714): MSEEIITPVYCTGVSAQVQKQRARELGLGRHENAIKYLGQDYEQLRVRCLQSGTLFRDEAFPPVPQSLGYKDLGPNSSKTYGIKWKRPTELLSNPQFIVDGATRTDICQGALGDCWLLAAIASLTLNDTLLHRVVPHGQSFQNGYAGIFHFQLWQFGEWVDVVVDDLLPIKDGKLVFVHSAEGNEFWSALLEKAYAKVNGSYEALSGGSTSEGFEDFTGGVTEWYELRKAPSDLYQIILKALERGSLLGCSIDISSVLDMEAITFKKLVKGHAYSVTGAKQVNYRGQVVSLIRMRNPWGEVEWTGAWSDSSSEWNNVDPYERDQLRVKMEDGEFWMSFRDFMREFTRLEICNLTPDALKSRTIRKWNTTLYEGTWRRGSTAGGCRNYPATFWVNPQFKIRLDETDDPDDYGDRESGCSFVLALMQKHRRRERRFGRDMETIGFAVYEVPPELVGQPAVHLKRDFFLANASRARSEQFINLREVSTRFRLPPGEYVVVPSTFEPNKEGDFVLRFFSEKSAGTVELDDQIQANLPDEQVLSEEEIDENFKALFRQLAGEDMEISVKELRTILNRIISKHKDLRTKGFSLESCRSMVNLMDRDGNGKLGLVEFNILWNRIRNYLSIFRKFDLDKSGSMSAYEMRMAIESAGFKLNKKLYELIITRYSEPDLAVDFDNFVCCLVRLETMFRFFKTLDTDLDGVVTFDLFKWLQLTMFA
T2 sequence (P04632 1-268 partner): T1 sequence (P04632 1-268 partner)
Method: as §1, §2

[4] = system: calpain activity in SH-SY5Y cells (Spectrin); experiment: SH-SY5Y Spectrin cellular calpain inhibition; assay type: cell-based
[5] = molecular target: T3, Human Calpain 2/NS1 (Homo sapiens, UniProt P17655); experiment: Biochemical inhibition of calpain 2, continuous fluorescence (FRET substrate) assay; details: mean; read-out: Human Calpain 2/NS1 1C50 [sic] (nM)_MEAN
T3 sequence (P17655 1-700): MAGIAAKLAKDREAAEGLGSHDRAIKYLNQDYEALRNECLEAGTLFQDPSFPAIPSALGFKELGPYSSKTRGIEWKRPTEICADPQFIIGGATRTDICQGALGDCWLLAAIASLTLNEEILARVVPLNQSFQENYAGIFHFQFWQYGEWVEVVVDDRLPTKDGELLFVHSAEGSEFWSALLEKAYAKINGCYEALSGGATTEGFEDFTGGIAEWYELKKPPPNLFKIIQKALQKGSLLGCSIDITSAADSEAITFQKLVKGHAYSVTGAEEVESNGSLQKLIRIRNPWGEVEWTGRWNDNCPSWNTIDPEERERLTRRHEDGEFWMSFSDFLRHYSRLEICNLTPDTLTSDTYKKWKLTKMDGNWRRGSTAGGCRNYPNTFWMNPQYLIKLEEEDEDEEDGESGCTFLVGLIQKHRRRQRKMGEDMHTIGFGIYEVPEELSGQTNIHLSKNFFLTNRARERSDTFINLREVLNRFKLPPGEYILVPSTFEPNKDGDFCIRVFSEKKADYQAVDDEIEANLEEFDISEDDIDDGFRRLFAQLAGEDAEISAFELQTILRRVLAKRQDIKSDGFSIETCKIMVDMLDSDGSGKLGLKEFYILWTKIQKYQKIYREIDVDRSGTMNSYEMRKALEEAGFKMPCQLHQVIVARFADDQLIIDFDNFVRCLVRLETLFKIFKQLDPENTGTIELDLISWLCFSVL
T3 sequence (P04632 1-268 partner): T1 sequence (P04632 1-268 partner)
Method: as §1, §2

IC50 [1] | IC50 [2] | IC50 [3] | IC50 [4] | IC50 [5] | Structure (SMILES)
< 3000 nM | < 10 µM | < 3000 nM | 10 to 25 µM | < 3000 nM | NC(=O)C(=O)[C@H](Cc1ccccc1)NC(=O)c1c(F)cccc1I [Compound 27, (S)—N-(4-AMINO-3,4-DIOXO-1-PHENYLBUTAN-2-YL)-2-FLUORO-6-IODOBENZAMIDE]
3000 to 10000 nM | < 10 µM | > 10000 nM | > 25 µM | 3000 to 10000 nM | NC(=O)C(=O)[C@H](Cc1ccccc1)NC(=O)c1ccc(F)cc1 [Compound 28, (S)—N-(4-AMINO-3,4-DIOXO-1-PHENYLBUTAN-2-YL)-4-FLUOROBENZAMIDE]
< 3000 nM | < 10 µM | < 3000 nM | 10 to 25 µM | < 3000 nM | COc1ccc(F)c(C(=O)N[C@@H](Cc2ccccc2)C(=O)C(N)=O)c1Cl [Compound 29, (S)—N-(4-AMINO-3,4-DIOXO-1-PHENYLBUTAN-2-YL)-2-CHLORO-6-FLUORO-3-METHOXYBENZAMIDE]
< 3000 nM | < 10 µM | < 3000 nM | 10 to 25 µM | < 3000 nM | Cc1ccc(F)c(C(=O)N[C@@H](Cc2ccccc2)C(=O)C(N)=O)c1Cl [Compound 30, (S)—N-(4-AMINO-3,4-DIOXO-1-PHENYLBUTAN-2-YL)-2-CHLORO-6-FLUORO-3-METHYLBENZAMIDE]
< 3000 nM | < 10 µM | < 3000 nM | < 10 µM | < 3000 nM | Cc1ccc(Cl)c(C(=O)N[C@@H](Cc2ccccc2)C(=O)C(N)=O)c1F [Compound 31, (S)—N-(4-AMINO-3,4-DIOXO-1-PHENYLBUTAN-2-YL)-6-CHLORO-2-FLUORO-3-METHYLBENZAMIDE]
< 3000 nM | < 10 µM | < 3000 nM | < 10 µM | < 3000 nM | NC(=O)C(=O)[C@H](Cc1ccccc1)NC(=O)c1c(C(F)(F)F)ccc(Cl)c1F [Compound 32, (S)—N-(4-AMINO-3,4-DIOXO-1-PHENYLBUTAN-2-YL)-3-CHLORO-2-FLUORO-6-(TRIFLUOROMETHYL)BENZAMIDE]
< 3000 nM | < 10 µM | < 3000 nM | < 10 µM | < 3000 nM | NC(=O)C(=O)[C@H](Cc1ccccc1)NC(=O)c1cc(F)c(Cl)cc1Cl [Compound 33, (S)—N-(4-AMINO-3,4-DIOXO-1-PHENYLBUTAN-2-YL)-2,4-DICHLORO-5-FLUOROBENZAMIDE]
< 3000 nM | < 10 µM | < 3000 nM | < 10 µM | < 3000 nM | NC(=O)C(=O)[C@H](Cc1ccccc1)NC(=O)c1cc(Br)ccc1Cl [Compound 34, (S)—N-(4-AMINO-3,4-DIOXO-1-PHENYLBUTAN-2-YL)-5-BROMO-2-CHLOROBENZAMIDE]
< 3000 nM | < 10 µM | < 3000 nM | 10 to 25 µM | < 3000 nM | COc1ccc(Br)cc1C(=O)N[C@@H](Cc1ccccc1)C(=O)C(N)=O [Compound 35, (S)—N-(4-AMINO-3,4-DIOXO-1-PHENYLBUTAN-2-YL)-5-BROMO-2-METHOXYBENZAMIDE]
> 10000 nM | > 25 µM | 3000 to 10000 nM | > 25 µM | < 3000 nM | COc1ccc(Cl)cc1C(=O)NC(C=O)Cc1ccccc1 (stereo not shown) [Compound 37, 5-CHLORO-2-METHOXY-N-(1-OXO-3-PHENYLPROPAN-2-YL)BENZAMIDE]
< 3000 nM | 10 to 25 µM | < 3000 nM | < 10 µM | < 3000 nM | O=CC(Cc1ccccc1)NC(=O)c1c(C(F)(F)F)ccc(Cl)c1F (stereo not shown) [Compound 38, 3-CHLORO-2-FLUORO-N-(1-OXO-3-PHENYLPROPAN-2-YL)-6-(TRIFLUOROMETHYL)BENZAMIDE]
< 3000 nM | 10 to 25 µM | < 3000 nM | > 25 µM | < 3000 nM | O=CC(Cc1ccccc1)NC(=O)c1c(F)cccc1C(F)(F)F (stereo not shown) [Compound 39, 2-FLUORO-N-(1-OXO-3-PHENYLPROPAN-2-YL)-6-(TRIFLUOROMETHYL)BENZAMIDE]
< 3000 nM | > 25 µM | < 3000 nM | 10 to 25 µM | < 3000 nM | O=CC(Cc1ccccc1)NC(=O)c1c(F)cccc1F (stereo not shown) [Compound 40, 2,6-DIFLUDRO-N-(1-OXO-3-PHENYLPROPAN-2-YL)BENZAMIDE]
< 3000 nM | < 10 µM | < 3000 nM | 10 to 25 µM | < 3000 nM | Cc1ccc(F)c(C(=O)NC(C=O)Cc2ccccc2)c1Cl (stereo not shown) [Compound 42, 2-CHLORO-6-FLUORO-3-METHYL-N-(1-OXO-3-PHENYLPROPAN-2-YL)BENZAMIDE]
